These results are taken from paper PMC10855341, “Inhibition of Apoptosis in a Model of Ischemic Stroke Leads to Enhanced Cell Survival, Endogenous Neural Precursor Cell Activation and Improved Functional Outcomes” (International Journal of Molecular Sciences, 2024).

This test deals with neural precursor cells (NPCs) from SVZ neurospheres. Kind of test: In vitro NPC cell viability with cisplatin (DAPI+ counts). In kind it is cell-based, adult mice (C57BL/6). The following applies: 20 µM cisplatin alone, 8 h; mean ± SEM, n = 3 independent experiments. The procedure: NSC neurospheres were obtained from control […] C57BL/6 periventricular dissections, as described above. Neurospheres were collected and mechanically disassociated into single cells and plated in 96-well plates coated with 4% Matrigel (Corning 354234, Corning, NY, USA) at a density of 20,000 cells per well in 100 µL of SFM with […] epidermal growth factor (GIBCO, PMG8041, Waltham, MA, USA), […] basic fibroblast growth factor (GIBCO, PHG0266, Waltham, MA, USA) and 2 µg/mL heparin (Sigma-Aldrich, H3149, St. Louis, MO, USA) (referred to as growth factors). One day later, the media was removed and replaced with fresh SFM, growth factors, 20 µM cisplatin (Sigma-Aldrich, P4394, St. Louis, MO, USA) and 10 µM NWL283 (New World Laboratories, Laval, QC, Canada) in sterile PBS. The vehicle group received media containing SFM, growth factors and PBS.
To assess cell viability at 2 h and 8 h, cells were fixed with 4% PFA for 15 min and washed three times for 5 min in PBS. Cells were incubated for 10 min with 1:10,000 DAPI (Invitrogen, D130, Waltham, MA, USA), then washed three times for 5 min in PBS and imaged on an Axio Observer Zeiss microscope. DAPI cells were counted using ImageJ (https://imagej.net/ij/) analyze particle detection and then manually confirmed. Data were collected from three independent experiments.

For `N.N.[Cl][Pt][Cl]` [cisplatin], the “cell survival, DAPI+ cells” value amounted to 49.09 ± 7.28 DAPI+ cells.
